Measurements from patent US5712148A (Synaptic Pharmaceutical Corporation, priority 1995, dated 1998).
Several values for one entry are separate records, joined by “and”; a condition that tells them apart may be missing. Equal entries are not always repeated. Where two headings read alike, the source gives them in different places.

How the values were obtained:
[1] = biological target: T1, hS1a (human betaine/GABA transporter, hBGT) (Homo sapiens, UniProt P48065); assay: Inhibition of specific [^3 H]GABA uptake in COS7 (transient) or LMtk- (stable; hS1a-3) cells expressing hS1a; type: cell-based; set-up: Translation of a long open reading frame predicts a protein of 614 amino acids with 12 putative transmembrane domains; expressed in transfected cells; conditions: for inhibitory potency at hS1a in words: inhibition of [^3 H]GABA uptake; for inhibition at 100 µM / inhibition at 500 µM: read-out: % Inhibition of specific [^3 H]GABA uptake; for IC50: estimated from data for one or two concentrations of inhibitor (Table 1), not corrected for [^3 H]GABA concentration; for potency at hS1a vs dog and mouse transporters, in words: comparison across clones
T1 sequence (P48065 1-614 C10Y): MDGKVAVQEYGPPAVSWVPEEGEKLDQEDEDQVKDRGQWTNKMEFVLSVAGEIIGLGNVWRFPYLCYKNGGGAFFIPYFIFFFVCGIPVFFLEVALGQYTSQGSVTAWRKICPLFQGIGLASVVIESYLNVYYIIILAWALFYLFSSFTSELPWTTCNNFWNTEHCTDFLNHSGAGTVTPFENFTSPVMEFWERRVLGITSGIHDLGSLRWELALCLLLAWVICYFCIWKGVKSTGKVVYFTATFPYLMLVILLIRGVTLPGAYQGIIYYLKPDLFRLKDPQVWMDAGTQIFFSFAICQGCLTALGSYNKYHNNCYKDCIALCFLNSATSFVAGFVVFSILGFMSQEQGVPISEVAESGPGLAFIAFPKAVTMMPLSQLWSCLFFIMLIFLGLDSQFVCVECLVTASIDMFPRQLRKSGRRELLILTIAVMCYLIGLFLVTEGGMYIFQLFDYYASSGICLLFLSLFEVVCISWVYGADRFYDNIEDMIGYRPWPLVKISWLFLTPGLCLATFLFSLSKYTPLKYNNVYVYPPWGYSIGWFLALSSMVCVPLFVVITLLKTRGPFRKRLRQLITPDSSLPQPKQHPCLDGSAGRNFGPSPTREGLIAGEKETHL
Procedure: (§1) Transport was also measured in suspension. The details of this method will described in detail in a subsequent publication (Borden et al., manuscript in preparation). Briefly, transient (COS-7) or stable (LM) transfectants were removed from culture plates with trypsin/EDTA, and transferred to suspension culture. The cells were grown in a temperature-controlled shaking incubator, using a medium containing methylcellulose. To measure transport the cells were washed by centrifugation, and resuspended in HBS. The assay was performed in 96-well microtiter plates (total volume=0.25 ml/well). […] Cell-associated radioactivity retained on the filters was determined by scintillation counting.

[2] = biological target: T1, hS1a (human betaine/GABA transporter, hBGT); conditions: in words
Procedure: as §1
(§2) For example, the dog and mouse clones were expressed in oocytes, whereas we employed COS-7 or LMtk^- fibroblasts for the human clone. Additionally, we measured transport for 10 minutes at 37° C., while the dog clone was assayed for 30 minutes at 25° C. […] Another important factor is our use of suspension cultures.

GAT-2 = biological target: T2, GAT-2 (Rattus norvegicus, UniProt P31646); assay: Affinity of GABA at GAT-2, suspension vs attached cells; type: cell-based; conditions: Borden, unpublished
T2 sequence (P31646 1-602): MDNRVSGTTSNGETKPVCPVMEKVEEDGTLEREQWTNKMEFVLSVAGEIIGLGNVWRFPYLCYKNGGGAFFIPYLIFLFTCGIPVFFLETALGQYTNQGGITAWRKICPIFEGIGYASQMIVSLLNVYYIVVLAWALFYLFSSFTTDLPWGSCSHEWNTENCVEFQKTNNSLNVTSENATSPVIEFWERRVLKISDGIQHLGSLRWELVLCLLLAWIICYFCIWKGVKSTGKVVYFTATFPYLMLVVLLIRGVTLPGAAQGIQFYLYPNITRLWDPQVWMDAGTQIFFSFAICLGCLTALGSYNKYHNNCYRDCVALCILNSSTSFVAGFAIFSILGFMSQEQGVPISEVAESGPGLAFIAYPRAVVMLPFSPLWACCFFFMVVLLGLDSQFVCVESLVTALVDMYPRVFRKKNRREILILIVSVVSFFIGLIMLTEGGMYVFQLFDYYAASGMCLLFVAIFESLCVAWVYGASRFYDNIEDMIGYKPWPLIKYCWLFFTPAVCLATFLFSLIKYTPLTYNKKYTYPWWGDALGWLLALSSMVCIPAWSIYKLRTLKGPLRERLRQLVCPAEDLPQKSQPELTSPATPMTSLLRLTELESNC
Excerpt: […]. […] Another important factor is our use of suspension cultures. […]. Liu et al., 1992a).

GAT-3 = biological target: T3, GAT-3 (Rattus norvegicus, UniProt P31647); assay: Affinity of GABA at GAT-3, suspension vs attached cells; type: cell-based; conditions: Borden, unpublished
T3 sequence (P31647 1-627): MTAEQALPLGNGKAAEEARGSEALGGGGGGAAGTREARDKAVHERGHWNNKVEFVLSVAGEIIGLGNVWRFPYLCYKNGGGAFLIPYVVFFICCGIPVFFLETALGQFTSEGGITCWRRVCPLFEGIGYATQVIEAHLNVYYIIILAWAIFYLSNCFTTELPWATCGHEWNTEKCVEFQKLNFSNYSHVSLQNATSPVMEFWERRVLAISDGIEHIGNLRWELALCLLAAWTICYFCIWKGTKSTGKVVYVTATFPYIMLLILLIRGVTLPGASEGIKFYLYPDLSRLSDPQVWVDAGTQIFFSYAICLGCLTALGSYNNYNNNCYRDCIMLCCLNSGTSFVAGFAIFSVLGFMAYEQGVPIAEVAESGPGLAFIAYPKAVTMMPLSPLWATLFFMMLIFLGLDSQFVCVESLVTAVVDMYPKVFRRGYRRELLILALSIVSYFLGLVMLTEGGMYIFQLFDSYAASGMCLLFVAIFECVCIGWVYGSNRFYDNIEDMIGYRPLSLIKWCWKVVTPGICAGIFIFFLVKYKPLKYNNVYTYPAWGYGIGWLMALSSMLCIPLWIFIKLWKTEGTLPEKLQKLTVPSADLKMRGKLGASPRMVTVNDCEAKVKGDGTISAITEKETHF
Procedure: as §2

[3] = test system: dog betaine/GABA transporter; conditions: Yamauchi et al., 1992, cited from earlier work
[4] = test system: mouse betaine/GABA transporter; conditions: data from Lopez-Corcuera et al., 1992; estimated from one or two concentrations of inhibitor; cited from earlier work
[5] = test system: dog betaine/GABA transporter; conditions: data from Yamauchi et al., 1992; estimated from one or two concentrations of inhibitor; cited from earlier work
[6] = test system: mouse betaine/GABA transporter; assay: Inhibition at mouse betaine/GABA transporter clone (literature comparison); type: cell-based; conditions: comparison across clones
Procedure: as §2

Compound	inhibitory potency at hS1a in words [1]	inhibition at 100 µM [1] [%]	IC50 [4] [µM]	IC50 ([1]; read-out: IC50 (human))	other results
N[C@@H]1CCC[C@H](C(=O)O)C1 (relative stereo) [ACHC, cis-3-aminocyclohexanecarboxylic acid]	weak inhibitors	0			
Cc1ccsc1C(=CCCN1CCC[C@@H](C(=O)O)C1)c1sccc1C [(R)-Tiagabine]	weak inhibitors	12 ± 7			
NCCCC(=O)O [GABA, γ-aminobutyric acid]					affinity of hBGT for GABA vs other GABA transporters [2]: lower than that of other GABA transporters; increase in affinity of GABA in suspension vs attached cells (GAT-2) (GAT-2): about 10 fold; increase in affinity of GABA in suspension vs attached cells (GAT-3) (GAT-3): about 10 fold; higher affinity of the transporter for GABA than for betaine [3]: 4 fold; affinity for GABA vs betaine, in words ([3]; betaine transporter cloned from MDCK dog kidney cells): higher affinity for GABA than for betaine
NCC[C@H](N)C(=O)O [L-DABA, L-(2,4)diaminobutyric acid]		24 ± 24			
C[N+](C)(C)CC(=O)O [betaine]			206	258 µM and 150 to 250 µM	inhibition at 500 µM [1]: 66 ± 15%
O=C(O)C1=CCCNC1 [guvacine]	weak inhibitors	5 ± 5	2800	1900 µM	
O=C(O)C1CCCNC1 (centres unmarked) [nipecotic acid]		34 ± 19			IC50 [5]: 4.7 mM; potency at hS1a vs dog and mouse transporters, in words [1]: more potent at hS1a than at either of the other two transporters
O=C(CCc1ccc(O)cc1)c1c(O)cc(O)cc1O [phloretin]			37	258 µM	potency at mouse BGT vs dog or human clones, in words [6]: more potent at the mouse BGT than at the dog or human clones; IC50 [5]: 0.2 mM; inhibition at 500 µM [1]: 66%
C=C[C@H]1C[N@@]2CC[C@H]1C[C@@H]2[C@@H](O)c1ccnc2ccc(OC)cc12 [quinidine]		92	49		IC50 ([1]; IC50 (human)): 488 µM and ~50 µM; inhibition at 500 µM [1]: 85%
NCCC(=O)O [β-alanine]		42 ± 22	1900	138 µM and 150 to 250 µM	IC50 [5]: 2.4 mM; potency at hS1a vs dog and mouse transporters, in words [1]: more potent at hS1a than at either of the other two transporters
hydroxynipecotic acid [OH-nipecotic acid]	weak inhibitors				IC50 ([1]; 10 min, listed as Hydroxynipecotic acid, 10 min, read-out: IC50 (human)): > 1000 µM; IC50 ([1]; 10 min, read-out: IC50 (human)): 1150 µM; % Inhibition of specific [^3 H]GABA uptake ([1]; inhibitor 100 μM, 50 nM [^3 H]GABA, 10 minutes, 37° C., mean ± SEM): 8 ± 8%
